# Source: patent publication US20230398232A1, “Composition and Use of Alternatively Formatted Anti-Mesothelin Antibodies for the Treatment of Cancer” (Navrogen, Inc., priority 2020, published 2023)
# Square brackets hold non-standard residues; d marks the D form. Peptide text beside a SMILES is read from it. * marks the point of attachment. Dolaproine = CO[C@@H]([C@@H]1CCCN1)[C@@H](C)C(=O)O; Dil = CC[C@H](C)[C@H](NC)[C@@H](CC(=O)O)OC; X1 = C[C@@H](N*)[C@@H](O)c1ccccc1; NMeV = CN[C@H](C(=O)O)C(C)C
# How the values were obtained:
# [1] = test system: NCI-N87, SW1990, HAY, YOU, OVCAR3 and A549 cells; assay: Free cytotoxin cytotoxicity, crystal violet viability; format: cell-based, human; conditions: 72 hours, average over cell lines
# From the text: FIGS. 2A-C. Cytotoxic payloads and linkers examined for developing reformatted MES-1 antibody for optimal killing of immunoproficient and immunosuppressed mesothelin expressing cancer cells. FIG. 2A provides chemical structures of various types of cytotoxic payloads (i.e., microtubule inhibitors, DNA alkylating agents, topoisomerase inhibitors, and protein kinase inhibitors, see, e.g., Yaghoubi S, et al. J Cell Physiol 235:31-64, 2019; Wang R E, et al. J Am Chem Soc 137:3229-3232, 2015) tested against immunosuppressive and immunoproficient mesothelin expressing target cells. FIG. 2B provides chemical structures of various enzymatic and non-enzymatic cleavable and non-cleavable linkers tested to generate MES-ADCs against immunosuppressive and immune-proficient mesothelin expressing target cells. FIG. 2C provides an overview of the cytotoxicity of potential ADC payloads against mesothelin expressing cancer cells or control cell lines (Table 1). Briefly, 96-well tissue culture plates were seeded with 5,000 cells/well of mesothelin-positive NCI-N87 (CA125^+ gastric cancer), SW1990 (CA125^+ pancreatic cancer), HAY (CA125^+ mesothelioma), YOU (CA125^− mesothelioma), OVCAR3 (CA125^+ ovarian cancer) and A549 (mesothelin negative lung cancer) cells in 100 μLs of RPMI plus 7.5% heat inactivated fetal bovine serum (FBS), and 0.0001 to 500 ng/mL of cytotoxin or negative control. Cultures were incubated for 72 hours at 37° C. in 5% CO2 then quantified for viability using crystal violet staining. Dried stained wells were solubilized using 1% SDS in phosphate buffer saline (PBS) and quantified by colorimetric densitometry on a Varioskan™ multi-well plate reader at 570 nm. […] Experiments represent a minimum of triplicate wells. Statistical analysis was done using a two-sided Student' T-test.
# To identify best candidates to meet this criteria, we first tested different classes of cytotoxins including DNA alkylating agents, microtubule inhibitors, and topoisomerase inhibitors (FIG. 2A). […]
# mesothelioma = conditions: patients with elevated CA125 vs low CA125; cited from earlier work
# follicular lymphoma = conditions: CA125 in normal range vs above normal range; cited from earlier work
molecule,measurement,setting,value
"CC[C@H](C)[C@@H]([C@@H](CC(=O)N1CCC[C@H]1[C@H](OC)[C@@H](C)C(=O)N[C@H](C)[C@@H](O)c1ccccc1)OC)N(C)C(=O)[C@@H](NC(=O)[C@@H](NC)C(C)C)C(C)C [MMAE, Monomethyl Auristatin E] (H-[NMeV]V[Dil][Dolaproine]-X1)",average EC50,[1],1.39 ng/mL
"COc1cccc2c1C(=O)c1c(O)c3c(c(O)c1C2=O)C[C@@](O)(C(=O)CO)C[C@@H]3O[C@H]1C[C@H]2[C@H](O[C@@H]3[C@@H](OC)OCCN32)[C@H](C)O1 [PNU159682, reference compound]",average EC50,[1],0.014 ng/mL
CCc1c2c(nc3ccc(O)cc13)-c1cc3c(c(=O)n1C2)COC(=O)[C@]3(O)CC [SN38],average EC50,[1],2.44 ng/mL
amatuximab: anti-mesothelin antibody,PFS and OS outcomes,mesothelioma,worse progression-free survival (PFS) and overall survival (OS) outcomes
rituximab: clinically used rituximab antibody,improvement in 5-year progression-free survival,follicular lymphoma,31.4%
